Measurements: publication PMC8243409 (Journal of chemical information and modeling, 2021)

Molecular target: E. coli dihydrofolate reductase (DHFR) (Escherichia coli, UniProt P0ABQ4)
Test: steady-state kinetics dose response
Type: biochemical

Chain of E. coli dihydrofolate reductase (DHFR) (P0ABQ4 whole entry): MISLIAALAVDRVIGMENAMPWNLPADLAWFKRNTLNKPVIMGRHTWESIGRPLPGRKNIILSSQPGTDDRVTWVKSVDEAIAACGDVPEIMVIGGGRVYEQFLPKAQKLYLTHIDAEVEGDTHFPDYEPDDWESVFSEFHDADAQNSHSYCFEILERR

Question: COc1cc2c(Nc3ccc(Br)cc3F)ncnc2cc1OCC1CCN(C)CC1 [NSC760766, Vandetanib] was tested. Which IC50 did it give?
Answer: ~39 µM
